From patent publication US10934315B2, “Process for preparing bortezomib, intermediates, and crystalline forms thereof” (PHARMACORE BIOTECH CO., LTD., priority 2018, dated 2021)

Test: Stability test of crystalline form D of bortezomib in a sealed state at 0-10° C.
Type: physicochemical
Conditions: for Purity (%): HPLC purity
Procedure: The crystalline form of bortezomib prepared in Example 2 was subjected to a stability test in a sealed state at a temperature of 0-10° C. for 3.5 months.

SMILES: CC(C)C[C@H](NC(=O)[C@H](Cc1ccccc1)NC(=O)c1cnccn1)B(O)O [Form D of Formula V, [(1R)-3-methyl-1-[[(2S)-1-oxo-3-phenyl-2-[(pyrazinylcarbonyl)amino]propyl]amino]butyl] boronic acid]
- (S, S) and (R, R) diastereomer (%) (1 month): 0.046%
- (S, S) and (R, R) diastereomer (%) (1 week): 0.068%
- (S, S) and (R, R) diastereomer (%) (2 month): 0.039%
- (S, S) and (R, R) diastereomer (%) (2 week): 0.042%
- (S, S) and (R, R) diastereomer (%) (3.5 month): 0.048%
- Stability (HPLC purity and crystalline form) (3.5 months): maintained in a stable state without any change in HPLC purity and crystalline form
- Purity (%) (1 month): 99.80%
- Purity (%) (1 week): 99.61%
- Purity (%) (2 month): 99.74%
- Purity (%) (2 week): 99.87%
- Purity (%) (3.5 month): 99.69%
